Publication PMC11650638, “In Vivo Activity Profiling of Biosynthetic Darobactin D22 against Critical Gram-Negative Pathogens” (ACS Infectious Diseases, 2024)

Experiments:
Format in all cases: cell-based
Escherichia coli = assay: MIC50/MIC90 determination and MIC against isolates of E. coli
Pseudomonas aeruginosa = assay: MIC50/MIC90 determination and MIC against isolates of P. aeruginosa
Acinetobacter baumannii = assay: MIC50/MIC90 determination and MIC against isolates of A. baumannii
Klebsiella pneumoniae = assay: MIC50/MIC90 determination and MIC against isolates of K. pneumoniae

Measured: MIC

colistin
64 µg/mL: Klebsiella pneumoniae; isolate ATCC13883 ColR_
16 µg/mL: Klebsiella pneumoniae; isolate CIP 104298
2 to 4 µg/mL: Escherichia coli; isolate ATCC25922 | Escherichia coli; isolate CIP 107049 | Escherichia coli; isolate NCTC10418 | Escherichia coli; isolate NCTC13352 | Escherichia coli; isolate PRAA3 | Escherichia coli; isolate PRAA21 | Pseudomonas aeruginosa; isolate CLI 02 | Pseudomonas aeruginosa; isolate TOUL 01 | Acinetobacter baumannii; isolate ATCC19003
8 µg/mL: Escherichia coli; isolate NCTC13846 | Acinetobacter baumannii; isolate ATCC51432 | Acinetobacter baumannii; isolate ATCC BAA-1795 | Acinetobacter baumannii; isolate NCTC13301
2 to 8 µg/mL: Acinetobacter baumannii; isolate G478 (AYE)
4 to 8 µg/mL: Acinetobacter baumannii; isolate ATCC BAA-1710 | Acinetobacter baumannii; isolate BM4454 | Acinetobacter baumannii; isolate CIP 107292 | Acinetobacter baumannii; isolate R831 | Acinetobacter baumannii; isolate R835
1 µg/mL: Escherichia coli; isolate G41 (second listing) | Escherichia coli; isolate G487 | Escherichia coli; isolate NCTC13400 | Escherichia coli; isolate PRAA1 | Escherichia coli; isolate R996 | Klebsiella pneumoniae; isolate ATCC13883 | Klebsiella pneumoniae; isolate ATCC43816 | Klebsiella pneumoniae; isolate ATCC BAA-1903 | Klebsiella pneumoniae; isolate ATCC BAA-2470 | Klebsiella pneumoniae; isolate ATCC BAA-2473 | Klebsiella pneumoniae; isolate CIP 104119 | Klebsiella pneumoniae; isolate Clinical Lyo-01 | Klebsiella pneumoniae; isolate Clinical Lyo-02 | Klebsiella pneumoniae; isolate Clinical Lyo-04 | Klebsiella pneumoniae; isolate Clinical Lyo-05 | Klebsiella pneumoniae; isolate G52 | Klebsiella pneumoniae; isolate G197 | Klebsiella pneumoniae; isolate G201 | Klebsiella pneumoniae; isolate G306 | Klebsiella pneumoniae; isolate NCTC13438 | Klebsiella pneumoniae; isolate NCTC13442 | Klebsiella pneumoniae; isolate NCTC13443 | Klebsiella pneumoniae; isolate R750 | Klebsiella pneumoniae; isolate R1242 | Klebsiella pneumoniae; isolate R1525 | Klebsiella pneumoniae; isolate R2673
2 µg/mL: Escherichia coli; isolate ATCC BAA-2340 | Escherichia coli; isolate ATCC BAA-2469 | Escherichia coli; isolate G38 | Escherichia coli; isolate G41 (first listing) | Escherichia coli; isolate G260 | Escherichia coli; isolate G264 | Escherichia coli; isolate G409 | Escherichia coli; isolate G486 | Escherichia coli; isolate NCTC13441 | Escherichia coli; isolate PRAA17 | Escherichia coli; isolate PRAA18 | Escherichia coli; isolate R721 | Escherichia coli; isolate R995 | Escherichia coli; isolate R1535 | Pseudomonas aeruginosa; isolate ATCC BAA-2114 | Pseudomonas aeruginosa; isolate CAE 02 | Pseudomonas aeruginosa; isolate CHA | Pseudomonas aeruginosa; isolate CIP 105250 | Pseudomonas aeruginosa; isolate CIP 105381 | Pseudomonas aeruginosa; isolate CIP 107051 | Pseudomonas aeruginosa; isolate CLI 03 | Pseudomonas aeruginosa; isolate COL 03 | Pseudomonas aeruginosa; isolate DIJ 02 | Pseudomonas aeruginosa; isolate NANC 01 | Pseudomonas aeruginosa; isolate NCTC13437 | Pseudomonas aeruginosa; isolate PA 43 | Pseudomonas aeruginosa; isolate PBI 03G | Pseudomonas aeruginosa; isolate PBI 07 | Pseudomonas aeruginosa; isolate R2255 | Pseudomonas aeruginosa; isolate R2256 | Pseudomonas aeruginosa; isolate SDE 05 | Pseudomonas aeruginosa; isolate STR 02 | Acinetobacter baumannii; isolate ATCC27224 | Acinetobacter baumannii; isolate ATCC BAA-1605 | Acinetobacter baumannii; isolate ATCC BAA-1791 | Acinetobacter baumannii; isolate CIP 105742 | Klebsiella pneumoniae; isolate ATCC BAA-1705 | Klebsiella pneumoniae; isolate ATCC BAA-2472 | Klebsiella pneumoniae; isolate CIP 105705 | Klebsiella pneumoniae; isolate CIP 106982 | Klebsiella pneumoniae; isolate Clinical Lyo-03 | Klebsiella pneumoniae; isolate NCTC13439
4 µg/mL: Pseudomonas aeruginosa; isolate BOR 04 | Pseudomonas aeruginosa; isolate BOR 05 | Pseudomonas aeruginosa; isolate CHRU LILLE VAP11 | Pseudomonas aeruginosa; isolate CHRU LILLE VAP65a | Pseudomonas aeruginosa; isolate NANC 06 | Pseudomonas aeruginosa; isolate PAO1 | Pseudomonas aeruginosa; isolate PBI 01 | Pseudomonas aeruginosa; isolate PGP 02 | Pseudomonas aeruginosa; isolate R1541 | Pseudomonas aeruginosa; isolate R2254 | Pseudomonas aeruginosa; isolate ROU 01 | Acinetobacter baumannii; isolate ATCC17978 | Acinetobacter baumannii; isolate ATCC19187 | Acinetobacter baumannii; isolate ATCC19606 | Acinetobacter baumannii; isolate ATCC BAA-747 | Acinetobacter baumannii; isolate ATCC BAA-1878 | Acinetobacter baumannii; isolate BM4652 (efflux mutant) | Acinetobacter baumannii; isolate DSM 30008 | Klebsiella pneumoniae; isolate ATCC BAA-2342
1 to 2 µg/mL: Escherichia coli; isolate ATCC BAA-2471 | Escherichia coli; isolate CIP 104103 | Escherichia coli; isolate CIP 105706 | Escherichia coli; isolate R2670
